Results on one compound are retold here after article PMC3220491 (The Journal of Biological Chemistry, 2011).

Changes are numbered by the printed parent chain.

Test in all cases: SAT activity, acetyl-CoA decrease at […] nm
For test [1], the target named is T1, AtSAT-c (Arabidopsis thaliana, UniProt Q42538, G270A).
T1 sequence (Q42538 1-312 G270A): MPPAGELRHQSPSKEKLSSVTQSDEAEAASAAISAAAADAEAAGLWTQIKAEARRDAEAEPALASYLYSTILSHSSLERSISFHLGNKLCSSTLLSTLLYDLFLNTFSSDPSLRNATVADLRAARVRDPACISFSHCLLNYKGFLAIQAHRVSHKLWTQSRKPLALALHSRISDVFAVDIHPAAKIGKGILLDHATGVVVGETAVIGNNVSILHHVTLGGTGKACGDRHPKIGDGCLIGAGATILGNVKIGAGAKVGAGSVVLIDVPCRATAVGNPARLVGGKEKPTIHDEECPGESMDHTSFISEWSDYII
The format is biochemical.

Test [2] concerns the target T2, AtSAT-c (Arabidopsis thaliana, UniProt Q42538, C268P/G270A).
T2 sequence (Q42538 1-312 C268P/G270A): T1 sequence (Q42538 1-312 G270A) with C268P
It is filed as biochemical.

In another test the test system is Tg-N/At-C. It is filed as biochemical, Noccaea goesingensis; Arabidopsis thaliana. The settings on record: 1 mM L-serine, 0.1 mM acetyl-CoA, 50 mM Tris-HCl pH 8.0, room temperature; feedback inhibition.
Test [3] concerns the target T3, AtSAT-c (Arabidopsis thaliana, UniProt Q42538, C268P).
T3 sequence (Q42538 1-312 C268P): T1 sequence (Q42538 1-312 G270A) with C268P, A270G
It is filed as biochemical.

The next test addresses T4, TgSAT-c (Noccaea goesingensis, UniProt Q6IWF8).
T4 sequence (Q6IWF8 1-311): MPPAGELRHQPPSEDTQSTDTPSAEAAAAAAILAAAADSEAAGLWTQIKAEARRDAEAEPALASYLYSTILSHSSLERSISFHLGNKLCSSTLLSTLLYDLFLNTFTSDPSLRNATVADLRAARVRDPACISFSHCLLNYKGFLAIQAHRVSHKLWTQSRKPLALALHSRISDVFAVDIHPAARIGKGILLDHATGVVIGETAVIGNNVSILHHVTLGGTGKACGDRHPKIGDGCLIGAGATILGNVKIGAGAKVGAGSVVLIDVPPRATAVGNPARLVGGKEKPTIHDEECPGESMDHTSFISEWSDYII
The format is biochemical.

The subject of the next test is At-N/Tg-C. It is filed as biochemical, Arabidopsis thaliana; Noccaea goesingensis. The settings on record: 1 mM L-serine, 0.1 mM acetyl-CoA, 50 mM Tris-HCl pH 8.0, room temperature; feedback inhibition.
The target of another test is T5, TgSAT-p (Noccaea goesingensis, UniProt Q6IWF9).
T5 sequence (Q6IWF9 1-319): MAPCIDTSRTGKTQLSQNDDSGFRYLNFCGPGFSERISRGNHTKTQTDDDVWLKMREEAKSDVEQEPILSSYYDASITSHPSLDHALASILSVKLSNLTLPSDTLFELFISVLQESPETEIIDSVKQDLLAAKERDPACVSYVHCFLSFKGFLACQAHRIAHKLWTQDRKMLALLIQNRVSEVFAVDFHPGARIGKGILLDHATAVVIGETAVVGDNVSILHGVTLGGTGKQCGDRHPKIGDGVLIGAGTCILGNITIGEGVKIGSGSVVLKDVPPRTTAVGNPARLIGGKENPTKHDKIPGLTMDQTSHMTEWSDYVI
The format is biochemical.

A further test addresses T6, TgSAT-m (Noccaea goesingensis, UniProt Q6IWG0).
T6 sequence (Q6IWG0 1-395): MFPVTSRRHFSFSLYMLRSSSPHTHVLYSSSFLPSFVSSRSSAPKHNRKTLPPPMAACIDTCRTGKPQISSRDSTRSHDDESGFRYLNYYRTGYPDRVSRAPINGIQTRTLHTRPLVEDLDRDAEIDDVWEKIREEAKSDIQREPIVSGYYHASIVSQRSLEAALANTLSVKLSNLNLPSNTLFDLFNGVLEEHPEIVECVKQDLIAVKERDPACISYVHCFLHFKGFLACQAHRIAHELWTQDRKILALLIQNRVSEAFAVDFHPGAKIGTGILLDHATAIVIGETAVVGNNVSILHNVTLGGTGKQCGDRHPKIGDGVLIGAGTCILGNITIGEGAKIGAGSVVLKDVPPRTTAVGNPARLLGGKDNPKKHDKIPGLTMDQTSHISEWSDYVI
The format is biochemical.

Test [4] has as its target T7, AtSAT-c (Arabidopsis thaliana, UniProt Q42538).
T7 sequence (Q42538 1-312): T1 sequence (Q42538 1-312 G270A) with A270G
It is filed as biochemical.

As to `N[C@@H](CS)C(=O)O` [L-Cys], the IC50 on AtSAT-c [1] was 17.7 µM; against AtSAT-c [2], > 100 µM; in the test on Tg-N/At-C, 3.4 µM; against AtSAT-c [3], 83.9 µM; at TgSAT-c, > 100 µM; in the test on At-N/Tg-C it was > 100 µM. For the same compound, the IC50 was > 100 µM at TgSAT-p, > 100 µM at TgSAT-m and 3.3 µM against AtSAT-c [4].
